Results taken from patent US9345245B2, “Synthetic compounds for vegetative ABA responses” (THE REGENTS OF THE UNIVERSITY OF CALIFORNIA, priority 2012, dated 2016).

How the values were obtained:
ABA-responsive genes [1] = test: Quantitative RT-PCR of ABA-responsive genes in Arabidopsis; type: in vivo
Description: (§1) FIG. 9. LC66C6 induces numerous ABA-responsive genes. […] Ten-day old seedlings were treated with carrier solvent (DMSO) or either 25 μM ABA, pyrabactin or LC66C6 for 8 hours. Total RNA was then prepared labeled and hybridized to ATH1 microarrays. Data plotted are log 2 transformed average expression values for ˜13K probes that were detectable across all experiments. Data shown are averages determined from triplicate biological replicates. (C) and (D) show the expression of a reporter gene in different plant tissues after treatment with vehicle (DMSO), pyrabactin, LC66C6, or (+)-ABA.
Total RNA was isolated using Plant RNA purification reagent (Invitrogen, USA) according to the manufacturer's instructions. cDNA was synthesized from 1 μg of total RNA using the QantiTec reverse transcription kit (Qiagen, USA). Real-time PCR using Maxima® SYBR Green/Fluorescein qPCR Master Mix (Fermentas) was performed with the iQ5 real-time PCR detection system (Bio-Rad, Hercules, Calif.). The relative amounts of target mRNAs were determined using the relative standard curve method and were normalized by relative amount of internal control mRNA. Biological triplicate experiments were performed.

ABA-responsive genes [2] = conditions: higher concentrations; Park et al., 2009; cited from earlier work
Arabidopsis seeds = conditions: pyr1 single mutant; Park et al. 2009; cited from earlier work
PYL5 = target: T1, PYL5 (Arabidopsis thaliana, UniProt Q9FLB1); test: Receptor-mediated PP2C inhibition assay, receptor PYL5; type: biochemical
T1 construct: 6xHis (N); made in house; BL21[DE3]pLysS for the GST-PP2Cs
T1 sequence (Q9FLB1 1-203): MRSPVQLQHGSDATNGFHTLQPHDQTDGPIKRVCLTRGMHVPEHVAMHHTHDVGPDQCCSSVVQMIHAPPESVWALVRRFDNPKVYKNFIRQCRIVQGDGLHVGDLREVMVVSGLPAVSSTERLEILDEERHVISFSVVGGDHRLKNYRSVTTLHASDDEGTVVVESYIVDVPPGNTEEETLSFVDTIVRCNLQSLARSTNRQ
T1 sequence (Q9CAJ0 23-511 partner): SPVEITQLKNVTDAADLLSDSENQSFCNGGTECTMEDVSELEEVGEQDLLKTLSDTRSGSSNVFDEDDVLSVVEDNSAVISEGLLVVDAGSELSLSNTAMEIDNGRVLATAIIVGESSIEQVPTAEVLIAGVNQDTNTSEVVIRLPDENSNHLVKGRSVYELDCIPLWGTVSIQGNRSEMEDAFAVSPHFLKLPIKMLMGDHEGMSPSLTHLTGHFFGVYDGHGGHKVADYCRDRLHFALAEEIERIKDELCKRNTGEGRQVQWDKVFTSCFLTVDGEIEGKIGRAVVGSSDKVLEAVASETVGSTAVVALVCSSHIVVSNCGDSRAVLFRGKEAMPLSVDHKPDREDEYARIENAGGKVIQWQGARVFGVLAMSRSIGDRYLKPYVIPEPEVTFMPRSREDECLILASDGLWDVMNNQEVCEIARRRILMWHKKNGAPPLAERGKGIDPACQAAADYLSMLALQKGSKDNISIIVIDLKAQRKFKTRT
Description: HAB1 and PYL proteins were expressed and purified as described previously (Park S Y, et al. (2009) Abscisic Acid Inhibits Type 2C Protein Phosphatases via the PYR/PYL Family of START Proteins. Science 324(5930):1068-1071), with minor modifications. To obtain GST-HAB1, -ABI1 and -ABI2 fusion proteins, the HAB1 cDNA was cloned into pGex-2T whereas ABI1 and ABI2 cDNAs were cloned into the vector pGex-4T-1. Expression was conducted in BL21[DE3]pLysS host cells. Transformed cells were pre-cultured overnight, transferred to LB medium and cultured at 30° C. to culture A600 of ˜0.5. The culture was then cooled on ice and MnCl2 added to 4 mM and IPTG added to 0.3 mM. After 16 hours incubation at 15° C., cells were harvested and recombinant proteins were purified on glutathione agarose as described previously (Park S Y, et al. (2009). To obtain 6×His-PYL receptor fusion proteins, receptor cDNAs for all 13 ABA receptors were cloned into the vector pET28 and expressed and purified as described previously (Mosquna A, et al. (2011) Potent and selective activation of abscisic acid receptors in vivo by mutational stabilization of their agonist-bound conformation. PNAS 108(51):20838-20843); this yielded soluble and functional protein (assessed using receptor-mediated PP2C inhibition assays) for all receptors except PYL7, PYL11 and PYL12. […]

ABA-responsive genes [3] = test: ATH1 microarray analysis of seedlings; type: in vivo, Arabidopsis; conditions: wild-type seedlings; 25 μM
Description: as §1
Total RNA was isolated using RNAeasy Plant Mini Kit (Qiagen, USA) according to the manufacturer's instructions. cDNA synthesis, labeling and hybridization to the Arabidopsis ATH1 chips (Affymetrix, USA) were performed by the IIGB Core Instrumentation Facility of University of California at Riverside using Affymetrix protocols. Biological triplicate samples were hybridized for DMSO controls, ABA, pyrabactin and quinabactin treatments; compound were applied at 25 μM final concentration and RNA prepared from frozen tissue after 6 hours exposure to compounds or controls. Expression signals for probe sets were calculated and normalized by MASS Statistical Algorithm (Affymetrix, USA). Experimental filtering of array data was performed for the presence of signal in all experiments. […]

Structure (SMILES): O=S(=O)(NCc1ccccn1)c1ccc(Br)c2ccccc12 [pyrabactin]
- induction of MAPKKK18, RD29A, and RD29B mRNAs (ABA-responsive genes [1]; Col and Ler ecotypes and pyr1, pyl1, ply2, pyl3 and pyl4 single mutants): did not significantly induce expression of any of the genes assayed
- expression of ABF3, GBF3, NCED3, and RD29A (ABA-responsive genes [1]; Col wild-type plants): did not induce significant expression of any genes analyzed
- expression of RD29B and MAPKKK18 mRNA (ABA-responsive genes [1]; wild-type plants): did not induce gene expression
- ABA-related gene expression in seedlings (ABA-responsive genes [2]): induce modest ABA-related gene expression
- germination of pyr1 mutant (Arabidopsis seeds): pyr1 mutant germinates
- PP2C inhibition at saturation (PYL5; maximal (saturating) inhibition): ~40%
- IC50 (PYL5; read-out: IC50 (activation of PYL5)): 900 nM
- genome-wide gene expression pattern compared with ABA (ABA-responsive genes [3]): did not induce an expression pattern similar to that of ABA
